Measured values published in patent US11427548B2 (Arvinas Operations, Inc., priority 2015, dated 2022).
Like-named read-outs stand apart in the source and are kept apart here. Each block holds one compound with its values, some of them ahead of it.

What was measured:
Assay type in all cases: cell-based
[1] = system: VCaP cells; test: VCaP cell proliferation assay (Cell Titer Glo), GI50; conditions: Homo sapiens, VCaP cells, 0.1 nM R1881, read-out: GI50, Inhibition of VCaP Proliferation
Procedure: 2. VCaP Cell Proliferation Assay.
VCaP cells are plated 7,500/well 200 μL/well in VCaP assay medium [Phenol red free RPMI (Gibco Cat #11835-030); 5% Charcoal Stripped (Dextran treated) FBS (Omega Scientific, Cat #FB-04); Pen/Strep Life Technologies (Gibco Cat #: 10378-016); 0.1 nM R1881 (Sigma, Cat #R0908) is added upon the start of the assay, not during initial plating of the cells).
The assay was performed as follows: the cells are grown for a minimum of 3 days to deplete androgens; dosing of PROTACs and R1881 is performed as for AR ELISA; the baseline reading of Cell Titer Glo can be performed on day of dosing.
VCaP cells with 0.1 nM R1881 will double once in 4 days. Gently draw off 110 μL of media so as not to disturb the adherent cells; add 110 μL of CTG; incubate with slow shaking for 20 minutes; and read luminescence on a plate reader.

[2] = target: T1, Androgen Receptor (Homo sapiens, UniProt P10275); test: Androgen Receptor ELISA assay (PathScan AR ELISA) in VCaP cells: AR degradation, Dmax and DC50
T1 construct: endogenous in cells; host or cells: VCaP cells
T1 sequence (P10275 1-920): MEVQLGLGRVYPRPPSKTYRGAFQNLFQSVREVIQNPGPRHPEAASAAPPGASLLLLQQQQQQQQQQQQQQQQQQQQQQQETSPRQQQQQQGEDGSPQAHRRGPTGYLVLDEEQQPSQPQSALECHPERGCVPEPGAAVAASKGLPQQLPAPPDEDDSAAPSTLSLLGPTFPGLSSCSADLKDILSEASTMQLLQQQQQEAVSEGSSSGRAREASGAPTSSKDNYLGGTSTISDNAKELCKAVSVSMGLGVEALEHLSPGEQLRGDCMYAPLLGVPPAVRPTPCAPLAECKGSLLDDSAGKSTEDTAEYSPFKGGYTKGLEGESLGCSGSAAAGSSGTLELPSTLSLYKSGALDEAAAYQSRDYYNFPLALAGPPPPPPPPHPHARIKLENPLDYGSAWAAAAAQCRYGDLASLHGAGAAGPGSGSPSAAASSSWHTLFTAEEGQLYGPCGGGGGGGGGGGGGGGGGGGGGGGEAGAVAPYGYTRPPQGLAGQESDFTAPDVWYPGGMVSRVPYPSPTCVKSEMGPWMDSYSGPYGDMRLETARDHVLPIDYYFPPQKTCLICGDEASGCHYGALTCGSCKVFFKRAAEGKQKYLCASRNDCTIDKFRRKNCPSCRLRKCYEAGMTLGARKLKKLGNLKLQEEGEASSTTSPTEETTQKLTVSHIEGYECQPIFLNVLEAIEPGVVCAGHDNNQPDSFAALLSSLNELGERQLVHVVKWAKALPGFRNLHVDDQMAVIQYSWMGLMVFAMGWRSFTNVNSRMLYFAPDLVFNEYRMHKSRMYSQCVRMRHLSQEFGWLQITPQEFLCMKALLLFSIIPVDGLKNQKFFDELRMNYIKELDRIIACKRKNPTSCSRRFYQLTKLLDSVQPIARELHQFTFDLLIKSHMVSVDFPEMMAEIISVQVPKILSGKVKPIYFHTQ
How it was run: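 After 24 h exposure of VCaP cells (charcoal-stripped serum, 0.1 nM R1881 agonist, 0.1% DMSO) to seven half-log compound concentrations, residual AR in lysates was measured by PathScan ELISA (TMB absorbance, 450 nm). Cells were plated at 30,000/well and grown at least 3 days beforehand.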

[3] = target: T2, Androgen Receptor (Homo sapiens, UniProt P10275+P40337, T878A); test: Androgen Receptor ELISA assay (PathScan AR ELISA) in LNCaP cells: AR degradation, Dmax and DC50; conditions: for DC50: concentration that caused 50% Androgen Receptor degradation; for Dmax: highest percentage of Androgen Receptor degradation
T2 construct: Compounds have been evaluated in this assay in LNCaP and/or VCaP cells utilizing similar protocols; endogenous in cells; host or cells: LNCaP cells

[4] = VCaP, highest percentage of Androgen Receptor degradation observed, VCaP cells (Table 32); read-out: VCaP Dmax (%)
[5] = concentration that caused 50% Androgen Receptor degradation, VCaP cells (Table 32); read-out: VCaP DC50
[6] = read-out: VCaP DC50; VCaP cells; concentration that caused 50% Androgen Receptor degradation

T2 sequence (P10275 whole entry T878A): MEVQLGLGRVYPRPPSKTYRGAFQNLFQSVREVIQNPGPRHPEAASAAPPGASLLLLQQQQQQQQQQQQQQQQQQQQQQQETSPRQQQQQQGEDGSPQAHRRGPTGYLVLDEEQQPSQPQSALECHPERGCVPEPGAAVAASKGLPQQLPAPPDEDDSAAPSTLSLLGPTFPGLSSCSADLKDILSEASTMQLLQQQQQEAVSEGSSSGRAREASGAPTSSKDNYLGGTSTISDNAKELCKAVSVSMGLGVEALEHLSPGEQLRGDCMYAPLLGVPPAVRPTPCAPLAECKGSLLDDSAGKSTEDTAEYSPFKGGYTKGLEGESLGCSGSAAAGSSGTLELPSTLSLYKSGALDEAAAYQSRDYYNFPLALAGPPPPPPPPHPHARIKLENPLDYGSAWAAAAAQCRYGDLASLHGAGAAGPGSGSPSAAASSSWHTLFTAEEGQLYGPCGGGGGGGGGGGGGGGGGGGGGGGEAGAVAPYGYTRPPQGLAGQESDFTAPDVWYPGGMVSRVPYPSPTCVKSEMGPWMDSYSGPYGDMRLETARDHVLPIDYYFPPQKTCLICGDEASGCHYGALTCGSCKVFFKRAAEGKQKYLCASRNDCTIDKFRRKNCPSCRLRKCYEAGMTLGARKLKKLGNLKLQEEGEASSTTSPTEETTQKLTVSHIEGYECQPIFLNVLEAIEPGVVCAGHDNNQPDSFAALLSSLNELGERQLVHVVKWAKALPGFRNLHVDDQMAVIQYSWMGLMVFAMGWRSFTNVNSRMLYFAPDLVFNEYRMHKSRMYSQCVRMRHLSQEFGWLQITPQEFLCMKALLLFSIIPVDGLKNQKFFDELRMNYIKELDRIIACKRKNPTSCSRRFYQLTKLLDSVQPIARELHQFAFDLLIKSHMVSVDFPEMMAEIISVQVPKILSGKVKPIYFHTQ
T2 sequence (P40337 whole entry): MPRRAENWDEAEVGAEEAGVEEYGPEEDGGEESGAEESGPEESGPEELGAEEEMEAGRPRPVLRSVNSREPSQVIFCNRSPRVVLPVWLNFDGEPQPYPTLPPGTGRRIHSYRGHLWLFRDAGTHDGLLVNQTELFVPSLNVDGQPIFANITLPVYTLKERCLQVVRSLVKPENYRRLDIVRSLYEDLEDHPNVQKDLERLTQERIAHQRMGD
T2 sequence (Q15369 whole entry partner): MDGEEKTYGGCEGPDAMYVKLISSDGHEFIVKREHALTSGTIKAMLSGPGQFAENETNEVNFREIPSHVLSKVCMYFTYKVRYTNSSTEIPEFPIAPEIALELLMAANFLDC
T2 sequence (Q15370 whole entry partner): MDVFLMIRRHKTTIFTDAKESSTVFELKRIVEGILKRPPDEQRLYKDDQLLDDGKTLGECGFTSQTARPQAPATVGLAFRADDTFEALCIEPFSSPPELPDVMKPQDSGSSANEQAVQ

Compound: CC1(C)[C@H](N)C(C)(C)[C@H]1Oc1ccc(C#N)c(Cl)c1 [ABM-26]
GI50 ([1]; Table 38 (ABM)): 0.051 to 0.25 µM

Compound: CC1(C)[C@H](N)C(C)(C)[C@@H]1Oc1ccc(C#N)c(Cl)c1 [ABM-27]
GI50 ([1]; Table 38 (ABM)): ≥ 0.251 µM

GI50 ([1]; Table 38 (ABM)): 0.051 to 0.25 µM
Compound: CC(C)(C)OC(=O)N[C@H]1C(C)(C)[C@H](Oc2ccc(C#N)c(Cl)c2)C1(C)C [ABM-29]

Compound: CC1(C)[C@H](NC(=O)c2ccc(N)cc2)C(C)(C)[C@H]1Oc1ccc(C#N)c(Cl)c1 [ABM-30]
GI50 ([1]; Table 38 (ABM)): ≤ 0.05 µM

GI50 ([1]; Table 38 (ABM)): 0.051 to 0.25 µM
Compound: CC1(C)[C@H](NC(=O)c2cnc(N)cn2)C(C)(C)[C@H]1Oc1ccc(C#N)c(Cl)c1 [ABM-31]

GI50 ([1]; Table 38 (ABM)): 0.051 to 0.25 µM
Compound: COc1ccc(C(=O)N[C@H]2C(C)(C)[C@H](Oc3ccc(C#N)c(Cl)c3)C2(C)C)cc1 [ABM-33]

GI50 ([1]; Table 38 (ABM)): ≥ 0.251 µM
Compound: CC1(C)[C@H](NC(=O)c2cnn(CCO)c2)C(C)(C)[C@H]1Oc1ccc(C#N)c(Cl)c1 [ABM-34]

GI50 ([1]; Table 38 (ABM)): ≤ 0.05 µM
Compound: CC1(C)[C@H](NC(=O)c2ccc(NCCCCCO)cc2)C(C)(C)[C@H]1Oc1ccc(C#N)c(Cl)c1 [ABM-36]

GI50 ([1]; Table 38 (ABM)): ≤ 0.05 µM
Compound: CC(C)(C)OC(=O)COCCCCCNc1ccc(C(=O)N[C@H]2C(C)(C)[C@H](Oc3ccc(C#N)c(Cl)c3)C2(C)C)cc1 [ABM-37]

Compound: Cc1ncsc1-c1ccc(CNC(=O)[C@@H]2C[C@@H](O)CN2C(=O)[C@@H](NC(=O)COC[C@@H](O)CCOc2ccc(-c3ccc(N4C(=S)N(c5ccc(C#N)c(C(F)(F)F)c5)C(=O)C4(C)C)cc3)cc2)C(C)(C)C)cc1 [Example 131, (2S,4R)-1-[(2S)-2-{2-[(2S)-4-[4-(4-{3-[4-cyano-3-(trifluoromethyl)phenyl]-5,5-dimethyl-4-oxo-2-sulfanylideneimidazolidin-1-yl}phenyl)phenoxy]-2-hydroxybutoxy]acetamido}-3,3-dimethylbutanoyl]-4-hydroxy-N-{[4-(4-methyl-1,3-thiazol-5-yl)phenyl]methyl}pyrrolidine-2-carboxamide]
Dmax ([2]; VCaP, read-out: VCaP Dmax (%)): > 71%
GI50 ([1]; Table 37): 0.051 to 0.25 µM

Compound: Cc1cc(-c2ccc(N3C(=S)N(c4ccc(C#N)c(C(F)(F)F)c4)C(=O)C3(C)C)cc2)ccc1OCCCCOCC(=O)N[C@H](C(=O)N1C[C@H](O)C[C@H]1C(=O)NCc1ccc(-c2scnc2C)cc1)C(C)(C)C [Example 134, (2S,4R)-1-[(2S)-2-(2-{4-[4-(4-{3-[4-cyano-3-(trifluoromethyl)phenyl]-5,5-dimethyl-4-oxo-2-sulfanylideneimidazolidin-1-yl}phenyl)-2-methylphenoxy]butoxy}acetamido)-3,3-dimethylbutanoyl]-4-hydroxy-N-{[4-(4-methyl-1,3-thiazol-5-yl)phenyl]methyl}pyrrolidine-2-carboxamide]
Dmax ([2]; VCaP, read-out: VCaP Dmax (%)): > 71%
DC50 ([2]; read-out: VCaP DC50; concentration that caused 50% Androgen Receptor degradation, VCaP cells (Table 32)): < 0.05 µM
GI50 ([1]; Table 37): 0.051 to 0.25 µM

Dmax [2, 4]: > 71%
DC50 [2, 5]: < 0.05 µM
GI50 ([1]; Table 37): ≤ 0.05 µM
Compound: Cc1ncoc1-c1ccc([C@H](C)NC(=O)[C@@H]2C[C@@H](O)CN2C(=O)[C@@H](NC(=O)COCCCCCOc2ccc(C(=O)N[C@H]3C(C)(C)[C@H](Oc4ccc(C#N)c(Cl)c4)C3(C)C)cc2)C(C)(C)C)cc1 [Example 156, (2S,4R)-1-[(2S)-3,3-dimethyl-2-(2-{[5-(4-{[trans--3-(3-chloro-4-cyanophenoxy)-2,2,4,4-tetramethylcyclobutyl]carbamoyl]phen-oxy)pentyl]oxy}acetamido)butanoyl]-4-hydroxy-N-[(1S)-1-[4-(4-methyl-1,3-oxazol-5-yl)phenyl]ethyl]pyrrolidine-2-carboxamide]

Dmax [2, 4]: > 71%
GI50 ([1]; Table 37): ≤ 0.05 µM
Compound: Cc1ncsc1-c1ccc([C@H](C)NC(=O)[C@@H]2C[C@@H](O)CN2C(=O)[C@@H](NC(=O)COCCCCCOc2ccc(C(=O)N[C@H]3C(C)(C)[C@H](Oc4ccc(C#N)c(Cl)c4)C3(C)C)cc2)C(C)(C)C)cc1 [Example 157, (2S,4R)-1-[(2S)-3,3-dimethyl-2-(2-{[5-(4-{[trans-3-(3-chloro-4-cyanophenoxy)-2,2,4,4-tetramethylcyclobutyl]carbamoyl}phen-oxy)pentyl]oxy}acetamido)butanoyl]-4-hydroxy-N-[(1S)-1-[4-(4-methyl-1,3-thiazol-5-yl)phenyl]ethyl]pyrrolidine-2-carboxamide]

Compound: CC(C)(C)[C@H](NC(=O)COCCCCOc1ccc(C(=O)N[C@H]2C(C)(C)[C@H](Oc3ccc(C#N)c(Cl)c3)C2(C)C)cc1)C(=O)N1C[C@H](O)C[C@H]1C(=O)NCc1ccc(Cl)cc1 [Example 169, (2S,4R)-N-[(4-chlorophenyl)methyl]-1-[(2S)-3,3-dimethyl-2-{2-[4-(4-{[trans-3-(3-chloro-4-cyanophenoxy)-2,2,4,4-tetramethylcyclobutyl]carbamoyl}phenoxy)butoxy]acetamido}butanoyl]-4-hydroxypyrrolidine-2-carboxamide]
Dmax [2, 4]: 51 to 70%
DC50 [2, 5]: < 0.05 µM
GI50 ([1]; Table 37): 0.051 to 0.25 µM

Compound: CC(C)(C)[C@H](NC(=O)COCCCCOc1ccc(C(=O)N[C@H]2C(C)(C)[C@H](Oc3ccc(C#N)c(Cl)c3)C2(C)C)cc1)C(=O)N1C[C@H](O)C[C@H]1C(=O)NCc1ccc(C#N)cc1 [Example 170, (2S,4R)-N-[(4-cyanophenyl)methyl]-1-[(2S)-3,3-dimethyl-2-{2-[4-(4-{[trans-3-(3-chloro-4-cyanophenoxy)-2,2,4,4-tetramethylcyclobutyl]carbamoyl}phenoxy)butoxy]acetamido}butanoyl]-4-hydroxypyrrolidine-2-carboxamide]
Dmax [2, 4]: > 71%
DC50 [2, 5]: < 0.05 µM
GI50 ([1]; Table 37): ≤ 0.05 µM

Compound: Cc1ncsc1-c1ccc(CNC(=O)[C@@H]2C[C@@H](O)CN2C(=O)[C@@H](NC(=O)CCc2ccc(OCCOc3ccc(N4C(=S)N(c5ccc(C#N)c(C(F)(F)F)c5)C(=O)C4(C)C)cc3)cc2)C(C)(C)C)cc1 [Example 303]
Dmax ([2]; VCaP, read-out: VCaP Dmax (%)): 51 to 70%
DC50 [2, 6]: < 0.05 µM
DC50 [3]: < 0.05 µM
Dmax [3]: > 71%

Compound: Cc1ncsc1-c1ccc(CNC(=O)[C@@H]2C[C@@H](O)CN2C(=O)[C@@H](NC(=O)CCOc2ccc(CCOc3ccc(N4C(=S)N(c5ccc(C#N)c(C(F)(F)F)c5)C(=O)C4(C)C)cc3)cc2)C(C)(C)C)cc1 [Example 306]
Dmax ([2]; VCaP, read-out: VCaP Dmax (%)): 51 to 70%
DC50 [3]: < 0.05 µM
Dmax [3]: > 71%

Compound: Cc1ncsc1-c1ccc(CNC(=O)[C@@H]2C[C@@H](O)CN2C(=O)[C@@H](NC(=O)COCCCOCCCOc2ccc(CN3C(=S)N(c4ccc(C#N)c(C(F)(F)F)c4)C(=O)C3(C)C)cc2)C(C)(C)C)cc1 [Example 307]
Dmax ([2]; VCaP, read-out: VCaP Dmax (%)): 51 to 70%
DC50 [2, 6]: < 0.05 µM
DC50 [3]: 0.051 to 0.5 µM
Dmax [3]: 51 to 70%

Compound: Cc1ncsc1-c1ccc(CNC(=O)[C@@H]2C[C@@H](O)CN2C(=O)[C@@H](NC(=O)COCCCOCCCCOc2ccc(CN3C(=S)N(c4ccc(C#N)c(C(F)(F)F)c4)C(=O)C3(C)C)cc2)C(C)(C)C)cc1 [Example 308]
Dmax ([2]; VCaP, read-out: VCaP Dmax (%)): 51 to 70%
DC50 [2, 6]: < 0.05 µM
DC50 [3]: 0.051 to 0.5 µM
Dmax [3]: 51 to 70%

Compound: Cc1ncsc1-c1ccc(CNC(=O)[C@@H]2C[C@@H](O)CN2C(=O)[C@@H](NC(=O)CCCOCCN2CCC(c3ccc(N4C(=S)N(c5ccc(C#N)c(C(F)(F)F)c5)C(=O)C4(C)C)cc3)CC2)C(C)(C)C)cc1 [Example 309]
Dmax ([2]; VCaP, read-out: VCaP Dmax (%)): 26 to 50%
DC50 [2, 6]: < 0.05 µM
DC50 [3]: > 0.501 µM
Dmax [3]: 26 to 50%

Compound: Cc1ncsc1-c1ccc(CNC(=O)[C@@H]2C[C@@H](O)CN2C(=O)[C@@H](NC(=O)C(C)(C)C(O)CCCOCCCCCOc2ccc(N3C(=S)N(c4ccc(C#N)c(C(F)(F)F)c4)C(=O)C3(C)C)cc2)C(C)(C)C)cc1 (some centres unmarked) [Example 310]
Dmax ([2]; VCaP, read-out: VCaP Dmax (%)): < 25%
DC50 [3]: > 0.501 µM
Dmax [3]: 26 to 50%
